Read-outs that look alike come from different tables or passages of the source.
Legend:
human orexin-2 receptor = human orexin-2 receptor (Homo sapiens (Human), UniProt O43614); experiment: Intracellular calcium measurement (FLIPR), CHO cells expressing human orexin-2 receptor, 3 nM orexin-A; format: cell-based; conditions: read-out: IC50 OX2
Procedure, shortened: (§1)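 CHO cells stably expressing each receptor were loaded with 3 μM fluo-4 AM plus 5 mM probenecid for 50 min at 37 °C, then equilibrated 30 min at rt.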

orexin-1 = orexin-1 (Homo sapiens (Human), UniProt O43613); experiment: Intracellular calcium measurement (FLIPR), CHO cells expressing human orexin-1 receptor, 3 nM orexin-A; format: cell-based; conditions: read-out: IC50 OX1
Procedure, shortened: as §1

[1] = CHO cells expressing human orexin-2 receptor, FLIPR, 3 nM orexin-A, geometric mean if determined several times
[2] = CHO cells expressing human orexin-1 receptor, FLIPR, 3 nM orexin-A, geometric mean if determined several times

Sequence of orexin-1 (O43613 whole entry): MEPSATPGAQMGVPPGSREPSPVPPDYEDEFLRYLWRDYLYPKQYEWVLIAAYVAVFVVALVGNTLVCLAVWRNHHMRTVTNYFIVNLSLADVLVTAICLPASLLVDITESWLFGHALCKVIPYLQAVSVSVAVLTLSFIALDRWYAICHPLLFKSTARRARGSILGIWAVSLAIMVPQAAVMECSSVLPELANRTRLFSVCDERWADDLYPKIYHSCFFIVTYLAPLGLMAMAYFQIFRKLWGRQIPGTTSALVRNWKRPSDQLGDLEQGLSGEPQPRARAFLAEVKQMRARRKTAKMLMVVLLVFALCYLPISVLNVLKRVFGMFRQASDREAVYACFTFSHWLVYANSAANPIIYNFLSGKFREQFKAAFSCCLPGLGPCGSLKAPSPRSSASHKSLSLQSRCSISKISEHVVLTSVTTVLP
Sequence of human orexin-2 receptor (O43614 whole entry): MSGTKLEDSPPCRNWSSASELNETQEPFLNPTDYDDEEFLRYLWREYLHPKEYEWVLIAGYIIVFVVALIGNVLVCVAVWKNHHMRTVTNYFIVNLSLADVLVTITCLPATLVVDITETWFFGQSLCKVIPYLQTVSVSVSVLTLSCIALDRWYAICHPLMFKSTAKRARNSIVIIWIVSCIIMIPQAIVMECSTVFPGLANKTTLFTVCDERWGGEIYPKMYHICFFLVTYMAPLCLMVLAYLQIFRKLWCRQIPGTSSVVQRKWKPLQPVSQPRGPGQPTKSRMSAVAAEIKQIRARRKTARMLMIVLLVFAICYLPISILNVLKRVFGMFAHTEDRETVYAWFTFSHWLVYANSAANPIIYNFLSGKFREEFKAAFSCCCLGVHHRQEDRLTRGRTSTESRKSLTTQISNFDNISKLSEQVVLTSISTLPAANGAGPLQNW

Row | Compound | IC50 (human orexin-2 receptor; [1]) [nM] | IC50 (orexin-1; [2]) [nM] | IC50 (human orexin-2 receptor) [nM] | IC50 (orexin-1) [nM]
1 | O=C(c1cc(Cl)ccc1-n1nccn1)N1CCC[C@H]1c1nnc(-c2ccccc2OC(F)(F)F)[nH]1 [compound 504] |  | 104 | 5 | 
2 | Cc1nc(C(=O)N2CCC[C@H]2c2nnc(-c3ccccc3OC(F)(F)F)[nH]2)c(-c2ccccc2)s1 [compound 506, (2-Methyl-5-phenyl-thiazol-4-yl)-{(S)-2-[5-(2-trifluoromethoxy-phenyl)-4H-[1,2,4]triazol-3-yl]-pyrrolidin-1-yl}-methanone] | 116 | 171 |  | 
3 | O=C(c1ccccc1-c1ccccc1)N1CCC[C@H]1c1nnc(-c2ccccc2OC(F)(F)F)[nH]1 [compound 508, Biphenyl-2-yl-{(S)-2-[5-(2-trifluoromethoxy-phenyl)-4H-[1,2,4]triazol-3-yl]-pyrrolidin-1-yl}-methanone] | 84 | 239 |  | 
4 | COc1cc(C(=O)N2CCC[C@H]2c2nnc(-c3ccccc3OC(F)(F)F)[nH]2)c(-n2nccn2)cc1Cl [compound 509] | 3 | 22 |  | 
5 | COc1cccc(-c2nnc([C@@H]3CCCN3C(=O)c3cc(C)ccc3-n3nccn3)[nH]2)c1 [compound 513, {(S)-2-[5-(3-Methoxy-phenyl)-4H-[1,2,4]triazol-3-yl]-pyrrolidin-1-yl}-(5-methyl-2-[1,2,3]triazol-2-yl-phenyl)-methanone] | 181 | 812 |  | 
6 | COc1ccc(-c2nnc([C@@H]3CCCN3C(=O)c3cc(C)ccc3-n3nccn3)[nH]2)cc1 [compound 514, {(S)-2-[5-(4-Methoxy-phenyl)-4H-[1,2,4]triazol-3-yl]-pyrrolidin-1-yl}-(5-methyl-2-[1,2,3]triazol-2-yl-phenyl)-methanone] | 3490 | > 6560 |  | 
7 | Cc1ccc(-n2nccn2)c(C(=O)N2CCC[C@H]2c2cnc(-c3cccc(Cl)c3C)[nH]2)c1 [compound 521] | 681 | 2510 |  | 
8 | Cc1ccc(C(=O)N2CCC[C@H]2c2cnc(-c3cccc(Cl)c3C)[nH]2)c(-n2nccn2)c1 [compound 522] |  |  | 367 | 2110
9 | Cc1ccc(-n2nccn2)c(C(=O)N2CCC[C@H]2c2ncc(-c3cccc(Cl)c3)[nH]2)c1 [compound 523] | 103 | 428 |  | 
10 | Cc1ccc(C(=O)N2CCC[C@H]2c2cc(-c3cccc(Cl)c3C)n[nH]2)c(-n2nccn2)c1 [compound 531] | 57 |  |  | 255
11 | Cc1ccc(-n2nccn2)c(C(=O)N2CCC[C@H]2c2cc(-c3cccc(Cl)c3C)n[nH]2)c1 [compound 534] | 53 | 410 |  | 
12 | C[C@@]1(c2nc(-c3ccccc3)no2)CCCN1C(=O)c1ncsc1-c1cccc(Cl)c1 [compound 538] | 2810 | 941 |  | 
13 | Cc1cccc(-c2ocnc2C(=O)N2CCC[C@@]2(C)c2nc(-c3ccccc3)no2)c1 [compound 539, [(S)-2-Methyl-2-(3-phenyl-[1,2,4]oxadiazol-5-yl)-pyrrolidin-1-yl]-(5-m-tolyl-oxazol-4-yl)-methanone] | 1780 | 560 |  | 
14 | Cc1ccc(C(=O)N2CCC[C@@]2(C)c2nnc(-c3ccccc3OC(F)(F)F)[nH]2)c(-n2nccn2)c1 [compound 543, (4-Methyl-2-[1,2,3]triazol-2-yl-phenyl)-{(S)-2-methyl-2-[5-(2-trifluoromethoxy-phenyl)-4H-[1,2,4]triazol-3-yl]-pyrrolidin-1-yl}-methanone] | 20 | 10 |  | 
15 | Cc1cc(-n2nccn2)c(C(=O)N2CCC[C@@]2(C)c2nnc(-c3ccccc3OC(F)(F)F)[nH]2)cc1Cl [compound 545] |  | 4 | 8 | 
16 | Cc1cc(C(=O)N2CCC[C@@]2(C)c2nnc(-c3ccccc3OC(F)(F)F)[nH]2)c(-n2nccn2)cc1C [compound 546, (4,5-Dimethyl-2-[1,2,3]triazol-2-yl-phenyl)-{(S)-2-methyl-2-[5-(2-trifluoromethoxy-phenyl)-4H-[1,2,4]triazol-3-yl]-pyrrolidin-1-yl}-methanone] | 8 | 4 |  | 
17 | C[C@@]1(c2nnc(-c3ccccc3OC(F)(F)F)[nH]2)CCCN1C(=O)c1cc(Cl)ccc1-n1nccn1 [compound 547] | 34 | 25 |  | 
18 | Cc1ccc(C(=O)N2CCC[C@@]2(C)c2nnc(-c3ccccc3OC(F)(F)F)[nH]2)c(-c2ccccc2)c1 [compound 548, (5-Methyl-biphenyl-2-yl)-{(S)-2-methyl-2-[5-(2-trifluoromethoxy-phenyl)-4H-[1,2,4]triazol-3-yl]-pyrrolidin-1-yl}-methanone] | 65 | 35 |  | 

Continued, in another order:

Row | IC50 (human orexin-2 receptor; [1]) [nM] | IC50 (orexin-1; [2]) [nM] | Compound | IC50 (human orexin-2 receptor) [nM] | IC50 (orexin-1) [nM]
19 | 4 | 27 | Cc1ccc(C(=O)N2CCC[C@H]2c2nnc(-c3ccccc3OC(F)(F)F)[nH]2)c(-n2nccn2)c1 [compound 501, (4-Methyl-2-[1,2,3]triazol-2-yl-phenyl)-{(S)-2-[5-(2-trifluoromethoxy-phenyl)-4H-[1,2,4]triazol-3-yl]-pyrrolidin-1-yl}-methanone] |  | 
20 | 27 | 156 | O=C(c1ccccc1-n1nccn1)N1CCC[C@H]1c1nnc(-c2ccccc2OC(F)(F)F)[nH]1 [compound 503, (2-[1,2,3]Triazol-2-yl-phenyl)-{(S)-2-[5-(2-trifluoromethoxy-phenyl)-4H-[1,2,4]triazol-3-yl]-pyrrolidin-1-yl}-methanone] |  | 
21 | 80 | 652 | CCc1ccccc1-c1nnc([C@@H]2CCCN2C(=O)c2cc(C)ccc2-n2nccn2)[nH]1 [compound 512, {(S)-2-[5-(2-Ethyl-phenyl)-4H-[1,2,4]triazol-3-yl]-pyrrolidin-1-yl}-(5-methyl-2-[1,2,3]triazol-2-yl-phenyl)-methanone] |  | 
22 | 646 | 400 | CCCOc1ccccc1-c1nnc([C@@H]2CCCN2C(=O)c2cc(C)ccc2-n2nccn2)[nH]1 [compound 515, (5-Methyl-2-[1,2,3]triazol-2-yl-phenyl)-{(S)-2-[5-(2-propoxy-phenyl)-4H-[1,2,4]triazol-3-yl]-pyrrolidin-1-yl}-methanone] |  | 
23 | 2 | 6 | Cc1ccc(C(=O)N2CCC[C@H]2c2ncc(-c3ccccc3OC(F)(F)F)[nH]2)c(-n2nccn2)c1 [compound 517, (4-Methyl-2-[1,2,3]triazol-2-yl-phenyl)-{(S)-2-[5-(2-trifluoromethoxy-phenyl)-1H-imidazol-2-yl]-pyrrolidin-1-yl}-methanone] |  | 
24 | 1 | 2 | CCOc1ccccc1-c1cnc([C@@H]2CCCN2C(=O)c2ccc(C)cc2-n2nccn2)[nH]1 [compound 518, {(S)-2-[5-(2-Ethoxy-phenyl)-1H-imidazol-2-yl]-pyrrolidin-1-yl}-(4-methyl-2-[1,2,3]triazol-2-yl-phenyl)-methanone] |  | 
25 | 720 | 1390 | Cc1ccc(-n2nccn2)c(C(=O)N2CCC[C@H]2c2cnc(-c3ccccc3)[nH]2)c1 [compound 519, (5-Methyl-2-[1,2,3]triazol-2-yl-phenyl)-[(S)-2-(2-phenyl-3H-imidazol-4-yl)-pyrrolidin-1-yl]-methanone] |  | 
26 | 45 | 709 | COc1cccc(-c2cnc([C@@H]3CCCN3C(=O)c3cc(C)ccc3-n3nccn3)[nH]2)c1 [compound 524, {(S)-2-[5-(3-Methoxy-phenyl)-1H-imidazol-2-yl]-pyrrolidin-1-yl}-(5-methyl-2-[1,2,3]triazol-2-yl-phenyl)-methanone] |  | 
27 | 88 | 343 | Cc1ccc(-n2nccn2)c(C(=O)N2CCC[C@H]2c2ncc(-c3cccc(Cl)c3C)[nH]2)c1 [compound 525, {(S)-2-[5-(3-Chloro-2-methyl-phenyl)-1H-imidazol-2-yl]-pyrrolidin-1-yl}-(5-methyl-2-[1,2,3]triazol-2-yl-phenyl)-methanone] |  | 
28 | 5 | 28 | CCOc1ccccc1-c1cnc([C@@H]2CCCN2C(=O)c2cc(C)ccc2-n2nccn2)[nH]1 [compound 526, {(S)-2-[5-(2-Ethoxy-phenyl)-1H-imidazol-2-yl]-pyrrolidin-1-yl}-(5-methyl-2-[1,2,3]triazol-2-yl-phenyl)-methanone] |  | 
29 | 109 | 389 | Cc1ccc(-n2nccn2)c(C(=O)N2CCC[C@H]2c2ncc(-c3ccccc3)[nH]2)c1 [compound 527, (5-Methyl-2-[1,2,3]triazol-2-yl-phenyl)-[(S)-2-(5-phenyl-1H-imidazol-2-yl)-pyrrolidin-1-yl]-methanone] |  | 
30 | 117 | 493 | Cc1ccc(-n2nccn2)c(C(=O)N2CCC[C@H]2c2ncc(-c3ccccc3C(F)(F)F)[nH]2)c1 [compound 528, (5-Methyl-2-[1,2,3]triazol-2-yl-phenyl)-{(S)-2-[5-(2-trifluoromethyl-phenyl)-1H-imidazol-2-yl]-pyrrolidin-1-yl}-methanone] |  | 
31 | 2 | 10 | Cc1ccc(-n2nccn2)c(C(=O)N2CCC[C@H]2c2ncc(-c3ccccc3OC(F)(F)F)[nH]2)c1 [compound 529, (5-Methyl-2-[1,2,3]triazol-2-yl-phenyl)-{(S)-2-[5-(2-trifluoromethoxy-phenyl)-1H-imidazol-2-yl]-pyrrolidin-1-yl}-methanone] |  | 
32 | 146 | 286 | Cc1ccc(-n2nccn2)c(C(=O)N2CCC[C@H]2c2cc(-c3ccccc3OC(F)(F)F)n[nH]2)c1 [compound 532, (5-Methyl-2-[1,2,3]triazol-2-yl-phenyl)-{(S)-2-[5-(2-trifluoromethoxy-phenyl)-2H-pyrazol-3-yl]-pyrrolidin-1-yl}-methanone] |  | 
33 | 81 | 258 | Cc1ccc(C(=O)N2CCC[C@H]2c2cc(-c3ccccc3OC(F)(F)F)n[nH]2)c(-n2nccn2)c1 [compound 533, (4-Methyl-2-[1,2,3]triazol-2-yl-phenyl)-{(S)-2-[5-(2-trifluoromethoxy-phenyl)-2H-pyrazol-3-yl]-pyrrolidin-1-yl}-methanone] |  | 
